Each compound was assayed on c-Myc (assay: c-Myc immunofluorescence assay). Details: A549 cells, 24 hours, anti-c-Myc immunofluorescence.
Type: cell-based, human
Method: A549 human non-small cell lung carcinoma cells were treated for 24 hours with increasing compound concentration, cells were fixed and stained with a nuclei stain (DAPI) and anti-c-Myc fluorescent antibody. The c-Myc signal was quantified by image analysis, and data was exported and analyzed using TIBCO Spotfire® (TIBCO Corporation). Dose response curves were generated and fitted with logaristic regression to calculate potency (EC50 values). Potency values are presented in Table 2 for all compounds and are shown for selected compounds (FIG. 3).
A549 cells were grown in 384-wells plates (Perkin Elmer, Cat. 6057300) for 48 hours, treated with compounds and then fixed for 20 min in 4% paraformaldehyde. After that permeabilization was done using 0.1% Triton X-100 in PBS for 20 min. Primary anti-c-Myc antibody (Abcam, ab32072) staining was performed for 90 min at room temperature. Cells then were washed twice with PBS and incubated with secondary antibody (Abcam, ab150075) for 90 min at room temperature. Nuclei were stained with DAPI for 10 min and washed twice with PBS.
Cell images were taken with Operetta (Perkin Elmer, USA), a wide-field fluorescence microscope at 20× magnification. After acquisition, the images were transferred to Columbus software (Perkin-Elmer) for image analysis. In Columbus, cells were identified by their nucleus, using the “Find Nuceli” module and cytoplasm was detected based on the secondary antibody channel. Subsequently, the fluorescent signal was enumerated in the identified cell region. Then data was exported to a data analysis and visualization software, Tibco Spotfire, USA.
COc1ccc(-c2noc(N3CCC(C(=O)NCC4CCN(C)CC4)CC3)n2)cc1 [Compound 217, 1-(3-(4-methoxyphenyl)-1,2,4-oxadiazol-5-yl)-N-((1-methylpiperidin-4-yl)methyl)piperidine-4-carboxamide] was tested, and the “Myc Efficacy (−LogEC50)” value was “− (− ≤3)”.
In the case of COc1ccc(-c2noc(N3CCC(C(=O)NCC4CCN(C5CCOC(C)C5)C4)CC3)n2)cc1 (centres unmarked) [Compound 402, 1-(3-(4-methoxyphenyl)-1,2,4-oxadiazol-5-yl)-N-((1-(2-methyltetrahydro-2H-pyran-4-yl)pyrrolidin-3-yl)methyl)piperidine-4-carboxamide], the “Myc Efficacy (−LogEC50)” value is reported as “+ (+ >3 and <5)”.
In the case of COc1ccc(-c2noc(N3CCN(C(=O)NCC4CCN(c5ccccc5)C4)CC3)n2)cc1 (centres unmarked) [Compound 345, 4-(3-(4-methoxyphenyl)-1,2,4-oxadiazol-5-yl)-N-((1-phenylpyrrolidin-3-yl)methyl)piperazine-1-carboxamide], the “Myc Efficacy (−LogEC50)” value is reported as “+ (+ >3 and <5)”.
With COc1ccc(-c2noc(N3CCN(C(=O)NCC4CCN(CC5CCCCC5)C4)CC3)n2)cc1 (centres unmarked) [Compound 421, N-((1-(cyclohexylmethyl)pyrrolidin-3-yl)methyl)-4-(3-(4-methoxyphenyl)-1,2,4-oxadiazol-5-yl)piperazine-1-carboxamide] the “Myc Efficacy (−LogEC50)” value was “+++ (+++ ≥6)”.
For COc1ccc(-c2noc(N3CCC(C(=O)NC4CCOC5(CCCCC5)C4)CC3)n2)cc1 (centres unmarked) [Compound 289, 1-(3-(4-methoxyphenyl)-1,2,4-oxadiazol-5-yl)-N-(1-oxaspiro[5.5]undecan-4-yl)piperidine-4-carboxamide], the “Myc Efficacy (−LogEC50)” value was “+ (+ >3 and <5)”.
With COc1ccc(-c2noc(N3CCC(C(=O)NCC4CCN(C5CC6(COC6)C5)C4)CC3)n2)cc1 (centres unmarked) [Compound 399, N-((1-(2-oxaspiro[3.3]heptan-6-yl)pyrrolidin-3-yl)methyl)-1-(3-(4-methoxyphenyl)-1,2,4-oxadiazol-5-yl)piperidine-4-carboxamide] the “Myc Efficacy (−LogEC50)” value was “+ (+ >3 and <5)”.
COc1ccc(-c2noc(N3CCC(C(=O)NCC4CCN(Cc5csc(C)n5)C4)CC3)n2)cc1 (centres unmarked) [Compound 383, 1-(3-(4-methoxyphenyl)-1,2,4-oxadiazol-5-yl)-N-((1-((2-methylthiazol-4-yl)methyl)pyrrolidin-3-yl)methyl)piperidine-4-carboxamide] was tested, and the “Myc Efficacy (−LogEC50)” value was “++ (++ ≥5 and <6)”.
Cc1ccc(CN2CCC(CNC(=O)C3CCN(c4nc(-c5ccc(C#N)cc5)no4)CC3)C2)nc1 (centres unmarked) [Compound 244, 1-(3-(4-cyanophenyl)-1,2,4-oxadiazol-5-yl)-N-((1-((5-methylpyridin-2-yl)methyl)pyrrolidin-3-yl)methyl)piperidine-4-carboxamide] was tested, and the “Myc Efficacy (−LogEC50)” value was “+ (+ >3 and <5)”.
For COc1ccc(-c2noc(N3CCC(C(=O)NC4COc5ccccc54)CC3)n2)cc1 (centres unmarked) [Compound 283, N-(2,3-dihydrobenzofuran-3-yl)-1-(3-(4-methoxyphenyl)-1,2,4-oxadiazol-5-yl)piperidine-4-carboxamide], the “Myc Efficacy (−LogEC50)” value was “+ (+ >3 and <5)”.
For Cc1ccc(CN2CCC(CNC(=O)C3CCN(c4nc(-c5ccc(Cl)cc5)no4)CC3)C2)nc1 (centres unmarked) [Compound 243, 1-(3-(4-chlorophenyl)-1,2,4-oxadiazol-5-yl)-N-((1-((5-methylpyridin-2-yl)methyl)pyrrolidin-3-yl)methyl)piperidine-4-carboxamide], the “Myc Efficacy (−LogEC50)” value was “+++ (+++ ≥6)”.
COc1ccc(-c2noc(N3CCC(C(=O)NCC4CCN(CC5CC(F)(F)C5)C4)CC3)n2)cc1 (centres unmarked) [Compound 393, N-((1-((3,3-difluorocyclobutyl)methyl)pyrrolidin-3-yl)methyl)-1-(3-(4-methoxyphenyl)-1,2,4-oxadiazol-5-yl)piperidine-4-carboxamide] was tested, and the “Myc Efficacy (−LogEC50)” value was “+ (+ >3 and <5)”.
For COc1ccc(-c2noc(N3CCC(C(=O)NCC4CCN(C(C)(C)C)C4)CC3)n2)cc1 (centres unmarked) [Compound 250, N-((1-(tert-butyl)pyrrolidin-3-yl)methyl)-1-(3-(4-methoxyphenyl)-1,2,4-oxadiazol-5-yl)piperidine-4-carboxamide], the “Myc Efficacy (−LogEC50)” value was “+ (+ >3 and <5)”.
For COc1ccc(-c2noc(N3CCC(C(=O)NCC4CCN(C)C4)CC3)n2)cc1 (centres unmarked) [Compound 219, 1-(3-(4-methoxyphenyl)-1,2,4-oxadiazol-5-yl)-N-((1-methylpyrrolidin-3-yl)methyl)piperidine-4-carboxamide], the “Myc Efficacy (−LogEC50)” value was “− (− ≤3)”.
With COc1ccc(-c2noc(N3CCC(C(=O)NC[C@@H]4CCN(CC5CCN(C)CC5)C4)CC3)n2)cc1 [Compound 434, (S)-1-(3-(4-methoxyphenyl)-1,2,4-oxadiazol-5-yl)-N-((1-((1-methylpiperidin-4-yl)methyl)pyrrolidin-3-yl)methyl)piperidine-4-carboxamide] the “Myc Efficacy (−LogEC50)” value was “+ (+ >3 and <5)”.
In the case of COc1ccc(-c2noc(N3CCN(C(=O)Nc4ccc(Cl)cc4)CC3)n2)cc1 [Compound 193, N-(4-chlorophenyl)-4-(3-(4-methoxyphenyl)-1,2,4-oxadiazol-5-yl)piperazine-1-carboxamide], the “Myc Efficacy (−LogEC50)” value is reported as “++ (++ ≥5 and <6)”.
In the case of COc1ccc(-c2noc(N3CCC(C(=O)NCC4CCN(Cc5ccoc5)C4)CC3)n2)cc1 (centres unmarked) [Compound 330, N-((1-(furan-3-ylmethyl)pyrrolidin-3-yl)methyl)-1-(3-(4-methoxyphenyl)-1,2,4-oxadiazol-5-yl)piperidine-4-carboxamide], the “Myc Efficacy (−LogEC50)” value is reported as “+ (+ >3 and <5)”.
COc1ccc(-c2noc(N3CCC(C(=O)NC4(Cc5ccccc5)COC4)CC3)n2)cc1 [Compound 277, N-(3-benzyloxetan-3-yl)-1-(3-(4-methoxyphenyl)-1,2,4-oxadiazol-5-yl)piperidine-4-carboxamide] was tested, and the “Myc Efficacy (−LogEC50)” value was “+ (+ >3 and <5)”.
With COc1ccc(-c2noc(N3CCN(C(C)=O)CC3)n2)cc1 [Compound 147, 1-(4-(3-(4-methoxyphenyl)-1,2,4-oxadiazol-5-yl)piperazin-1-yl)ethan-1-one] the “Myc Efficacy (−LogEC50)” value was “+ (+ >3 and <5)”.
For COc1ccc(-c2noc(N3CCC(C(=O)NC4=NCCS4)CC3)n2)cc1 [Compound 261, N-(4,5-dihydrothiazol-2-yl)-1-(3-(4-methoxyphenyl)-1,2,4-oxadiazol-5-yl)piperidine-4-carboxamide], the “Myc Efficacy (−LogEC50)” value was “+ (+ >3 and <5)”.
Cc1ccc(CN2CCC(CNC(=O)C3CCN(c4nc(-c5cccc(Cl)c5)no4)CC3)C2)cc1 (centres unmarked) [Compound 155, 1-(3-(3-chlorophenyl)-1,2,4-oxadiazol-5-yl)-N-((1-(4-methylbenzyl)pyrrolidin-3-yl)methyl)piperidine-4-carboxamide] was tested, and the “Myc Efficacy (−LogEC50)” value was “++ (++ ≥5 and <6)”.
In the case of COc1ccc(-c2noc(N3CCC(C(=O)Nc4ccc(C)cc4)CC3)n2)cc1 [Compound 210, 1-(3-(4-methoxyphenyl)-1,2,4-oxadiazol-5-yl)-N-(p-tolyl)piperidine-4-carboxamide], the “Myc Efficacy (−LogEC50)” value is reported as “+ (+ >3 and <5)”.
For COc1ccc(-c2noc(N3CCC(C(=O)NC[C@H](C)OC)CC3)n2)cc1 [Compound 276, (S)-1-(3-(4-methoxyphenyl)-1,2,4-oxadiazol-5-yl)-N-(2-methoxypropyl)piperidine-4-carboxamide], the “Myc Efficacy (−LogEC50)” value was “+ (+ >3 and <5)”.
COc1ccc(-c2noc(N3CCC(C(=O)NC[C@H]4CCN(C)C4)CC3)n2)cc1 [Compound 253, (R)-1-(3-(4-methoxyphenyl)-1,2,4-oxadiazol-5-yl)-N-((1-methylpyrrolidin-3-yl)methyl)piperidine-4-carboxamide] was tested, and the “Myc Efficacy (−LogEC50)” value was “+ (+ >3 and <5)”.
For COc1ccc(-c2noc(N3CCC(C(=O)NCC4CCN(Cc5sccc5C)C4)CC3)n2)cc1 (centres unmarked) [Compound 381, 1-(3-(4-methoxyphenyl)-1,2,4-oxadiazol-5-yl)-N-((1-((3-methylthiophen-2-yl)methyl)pyrrolidin-3-yl)methyl)piperidine-4-carboxamide], the “Myc Efficacy (−LogEC50)” value was “++ (++ ≥5 and <6)”.
COc1ccc(-c2noc(N3CCC(C(=O)NCC4CCN(Cc5ccccc5)C4)CC3)n2)cc1 (centres unmarked) [Compound 342, N-((1-benzylpyrrolidin-3-yl)methyl)-1-(3-(4-methoxyphenyl)-1,2,4-oxadiazol-5-yl)piperidine-4-carboxamide] was tested, and the “Myc Efficacy (−LogEC50)” value was “++ (++ ≥5 and <6)”.
In the case of COc1ccc(-c2noc(N3CCN(C(=O)C4CCOCC4)CC3)n2)cc1 [Compound 148, (4-(3-(4-methoxyphenyl)-1,2,4-oxadiazol-5-yl)piperazin-1-yl)(tetrahydro-2H-pyran-4-yl)methanone], the “Myc Efficacy (−LogEC50)” value is reported as “+ (+ >3 and <5)”.
For COc1ccc(-c2noc(N3CCC(C(=O)NCC4CCN(Cc5ccc(C)s5)C4)CC3)n2)cc1 (centres unmarked) [Compound 385, 1-(3-(4-methoxyphenyl)-1,2,4-oxadiazol-5-yl)-N-((1-((5-methylthiophen-2-yl)methyl)pyrrolidin-3-yl)methyl)piperidine-4-carboxamide], the “Myc Efficacy (−LogEC50)” value was “++ (++ ≥5 and <6)”.
In the case of COc1ccc(-c2noc(N3CCC(C(=O)NCCCN4CCN(C)CC4)CC3)n2)cc1 [Compound 117, 1-(3-(4-methoxyphenyl)-1,2,4-oxadiazol-5-yl)-N-(3-(4-methylpiperazin-1-yl)propyl)piperidine-4-carboxamide], the “Myc Efficacy (−LogEC50)” value is reported as “+ (+ >3 and <5)”.
For COc1ccc(-c2noc(N3CCC(C(=O)NCC4CCN(Cc5cccnc5C)C4)CC3)n2)cc1 (centres unmarked) [Compound 380, 1-(3-(4-methoxyphenyl)-1,2,4-oxadiazol-5-yl)-N-((1-((2-methylpyridin-3-yl)methyl)pyrrolidin-3-yl)methyl)piperidine-4-carboxamide], the “Myc Efficacy (−LogEC50)” value was “++ (++ ≥5 and <6)”.

— patent publication US12344600B2, “c-Myc mRNA translation modulators and uses thereof in the treatment of cancer” (Anima Biotech Inc., priority 2022, dated 2025)
